From ChEMBL document CHEMBL1146791, “Synthesis of nitrated indenoisoquinolines as topoisomerase I inhibitors” (2004)

What was measured:
[1] = test system: SF-268; test: Cytotoxicity against SF-268 human CNS cancer cell line was determined; format: functional
[2] = test system: MDA-MB-435; test: Cytotoxicity against MDA-MB-435 human breast cancer cell line was determined; format: functional
[3] = target: T1, DNA topoisomerase 1 (Homo sapiens) (UniProt P11387); test: Inhibitory activity against DNA topoisomerase I cleavage was determined at a concentration ranging up to 10 uM; ''+++'' indicates greater activity than the parent compound 25; parameters: scale not given here
T1 sequence (whole entry): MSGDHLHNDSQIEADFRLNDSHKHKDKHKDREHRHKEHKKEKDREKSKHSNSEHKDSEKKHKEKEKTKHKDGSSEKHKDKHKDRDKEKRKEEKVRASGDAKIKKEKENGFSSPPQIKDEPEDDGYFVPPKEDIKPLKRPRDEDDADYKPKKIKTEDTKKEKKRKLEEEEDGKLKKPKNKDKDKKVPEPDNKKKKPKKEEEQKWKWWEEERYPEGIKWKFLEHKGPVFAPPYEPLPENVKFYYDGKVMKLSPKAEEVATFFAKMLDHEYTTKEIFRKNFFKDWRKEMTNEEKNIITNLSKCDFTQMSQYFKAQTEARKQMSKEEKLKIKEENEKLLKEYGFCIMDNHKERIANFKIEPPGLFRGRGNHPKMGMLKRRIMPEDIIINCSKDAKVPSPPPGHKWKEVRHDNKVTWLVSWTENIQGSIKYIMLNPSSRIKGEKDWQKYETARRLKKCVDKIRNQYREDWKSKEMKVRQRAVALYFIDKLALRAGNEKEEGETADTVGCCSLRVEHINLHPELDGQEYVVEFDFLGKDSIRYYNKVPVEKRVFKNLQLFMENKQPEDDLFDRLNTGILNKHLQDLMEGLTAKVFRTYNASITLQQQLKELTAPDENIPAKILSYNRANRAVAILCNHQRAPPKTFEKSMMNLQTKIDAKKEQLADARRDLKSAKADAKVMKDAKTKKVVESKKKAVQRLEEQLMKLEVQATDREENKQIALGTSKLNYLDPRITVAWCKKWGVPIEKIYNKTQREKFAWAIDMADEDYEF

[4] = test system: OVCAR-3; test: Cytotoxicity against OVCAR-3 human ovarian cancer cell line was determined; format: functional
[5] = test system: UACC-62; test: Cytotoxicity against UACC-62 human melanoma cancer cell line was determined; format: functional
[6] = test system: SN12C; test: Cytotoxicity against SN12C human renal cancer cell line was determined; format: functional
[7] = test system: DU-145; test: Cytotoxicity against DU-145 human prostate cancer cell line was determined; format: functional
[8] = test system: HCT-116; test: Cytotoxicity against HCT116 human colon cancer cell line was determined; format: functional
[9] = test system: HOP-62; test: Cytotoxicity against HOP-62 human lung cancer cell line was determined; format: functional
[10] = target: T1, DNA topoisomerase 1 (Homo sapiens); test: Inhibitory activity against DNA topoisomerase I cleavage was determined at a concentration ranging up to 10uM; '+' indicates weak activity
[11] = target: T1, DNA topoisomerase 1 (Homo sapiens); test: Inhibitory activity against DNA topoisomerase I cleavage was determined at a concentration ranging up to 10 uM; ''+/-'' No description in the article
[12] = target: T1, DNA topoisomerase 1 (Homo sapiens); test: Inhibitory activity against DNA topoisomerase I cleavage was determined at a concentration ranging uM camptothecin
[13] = target: T1, DNA topoisomerase 1 (Homo sapiens); test: Inhibitory activity against DNA topoisomerase I cleavage was determined at a concentration ranging up to 10 uM
[14] = target: T1, DNA topoisomerase 1 (Homo sapiens); test: Inhibitory activity against DNA topoisomerase I cleavage was determined at a concentration ranging up to 10 uM; NT- Not tested

Compound	Activity [3]	Activity [10]	Activity [11]	Activity [12]	Activity [13]	Activity [14]	GI50 [1] [nM]	GI50 [2] [nM]	GI50 [4] [nM]	GI50 [5] [nM]	GI50 [6] [nM]	GI50 [7] [nM]	GI50 [8] [nM]	GI50 [9] [nM]
O=C1c2ccccc2-c2c1c1ccccc1c(=O)n2CCCBr	–	–	+/-	–	–	–	4610	–	–	–	–	–	–	–
COc1cc2c3c(n(C)c(=O)c2cc1OC)-c1cc2c(cc1C3=O)OCO2	–	–	–	–	–	–	–	96000	–	4200	68000	37000	35000	1300
NCCCn1c2c(c3ccc([N+](=O)[O-])cc3c1=O)C(=O)c1ccccc1-2	–	–	–	–	–	–	302	–	–	372	102	148	85	275
O=C1c2ccccc2-c2c1c1ccc([N+](=O)[O-])cc1c(=O)n2CCCCl	–	–	–	–	–	–	23400	31600	4900	20400	26900	40700	3630	43700
[N-]=[N+]=NCCCn1c2c(c3ccccc3c1=O)C(=O)c1ccccc1-2	–	–	–	–	–	–	–	7760	7940	19500	25100	44700	4900	7590
[N-]=[N+]=NCCCn1c2c(c3ccc([N+](=O)[O-])cc3c1=O)C(=O)c1ccccc1-2	–	–	–	–	–	–	79400	> 100000	–	44700	72400	> 100000	8130	> 100000
NCCCn1c2c(c3ccccc3c1=O)C(=O)c1ccccc1-2	++	–	–	–	–	–	–	780	1380	260	160	220	180	–
NCCCn1c2c(c3ccccc3c1=O)C(=O)c1cc3c(cc1-2)OCO3	–	weak activity	–	–	–	–	–	–	–	–	–	–	–	–
COc1cc2c3c(n(CCCN)c(=O)c2cc1OC)-c1cc2c(cc1C3=O)OCO2	++	–	–	–	–	–	–	–	–	–	–	–	–	–

Second part, led by results:

Activity [3]	Activity [10]	Activity [11]	Activity [12]	Activity [13]	Activity [14]	Compound	GI50 [1] [nM]	GI50 [2] [nM]	GI50 [4] [nM]	GI50 [5] [nM]	GI50 [6] [nM]	GI50 [7] [nM]	GI50 [8] [nM]	GI50 [9] [nM]
++	–	–	–	–	–	O=C1c2cc3c(cc2-c2c1c1ccc([N+](=O)[O-])cc1c(=O)n2CCCCl)OCO3	148	1820	9120	229	132	98	2400	410
–	weak activity	–	–	–	–	O=C1c2cc3c(cc2[C@@H]2[C@H]1c1ccc([N+](=O)[O-])cc1C(=O)N2CCCBr)OCO3	< 10	< 10	< 10	< 10	< 10	< 10	< 10	< 10
++	–	–	–	–	–	CN1C(=O)c2cc([N+](=O)[O-])ccc2[C@H]2C(=O)c3cc4c(cc3[C@H]21)OCO4	24	107	30	26	33	50	14	158
–	–	–	+++	–	–	[N-]=[N+]=NCCCn1c2c(c3ccc([N+](=O)[O-])cc3c1=O)C(=O)c1cc3c(cc1-2)OCO3	< 10	< 10	< 10	< 10	< 10	< 10	< 10	< 10
–	–	–	–	0	–	Nc1ccc2c3c(n(CCCCl)c(=O)c2c1)-c1cc2c(cc1C3=O)OCO2	> 100000	> 100000	> 100000	> 100000	> 100000	–	–	–
–	–	–	+++	–	–	NCCCn1c2c(c3ccc([N+](=O)[O-])cc3c1=O)C(=O)c1cc3c(cc1-2)OCO3	< 10	25	302	17	< 10	< 10	< 10	< 10
–	–	–	–	–	0	O=C1c2ccccc2-c2c1c1ccc([N+](=O)[O-])cc1c(=O)n2CCCBr	> 100000	> 100000	> 100000	> 100000	> 100000	> 100000	3450	–
–	weak activity	–	–	–	–	COc1cc2c(cc1OC)[C@H]1C(=O)c3cc4c(cc3[C@H]1N(CCCBr)C2=O)OCO4	–	150	400	50	30	30	70	120
–	weak activity	–	–	–	–	O=C1c2cc3c(cc2[C@@H]2[C@H]1c1ccc([N+](=O)[O-])cc1C(=O)N2CCCCl)OCO3	< 10	< 10	< 10	< 10	< 10	< 10	< 10	< 10
